Laboratory results from PMC10052652 (Molecules, 2023).
Where two headings read alike, the source gives them in different places.

Tests used:
[1] = DPPH radical scavenging assay; details: for DPPH Assay %: at 100 µM
Method: DPPH• (1-1-diphenyl 2-picryl hydrazyl) assay
This method is based on the spectrophotometric assay using the stable radical, DPPH•, as a reagent. First, 20 µL of each sample (4 mg/mL) was mixed with 180 µL of 0.1 mM DPPH• in methanol, in plates, after an incubation of 25 min in the dark. Absorbance was measured at 517 nm. Ascorbic acid was used as the reference compound. The radical-scavenging activities of molecules, expressed as a percentage inhibition of DPPH•, were calculated according to the following formula: Inhibition (%) = [(A control − A sample)/A control] × 100 where A is the absorbance determined at 517 nm. The absorbance of the solvent and DPPH• radical without the molecule was measured as the control.

[2] = cited from earlier work
[3] = design: method as in PMID 26504472; details: tested at 147.78 µM ref 17; cited from earlier work
[4] = target: acetylcholinesterase (AChE) (Homo sapiens, UniProt P22303); experiment: biochemical
Chain of acetylcholinesterase (AChE) (P22303 32-614, species assumed): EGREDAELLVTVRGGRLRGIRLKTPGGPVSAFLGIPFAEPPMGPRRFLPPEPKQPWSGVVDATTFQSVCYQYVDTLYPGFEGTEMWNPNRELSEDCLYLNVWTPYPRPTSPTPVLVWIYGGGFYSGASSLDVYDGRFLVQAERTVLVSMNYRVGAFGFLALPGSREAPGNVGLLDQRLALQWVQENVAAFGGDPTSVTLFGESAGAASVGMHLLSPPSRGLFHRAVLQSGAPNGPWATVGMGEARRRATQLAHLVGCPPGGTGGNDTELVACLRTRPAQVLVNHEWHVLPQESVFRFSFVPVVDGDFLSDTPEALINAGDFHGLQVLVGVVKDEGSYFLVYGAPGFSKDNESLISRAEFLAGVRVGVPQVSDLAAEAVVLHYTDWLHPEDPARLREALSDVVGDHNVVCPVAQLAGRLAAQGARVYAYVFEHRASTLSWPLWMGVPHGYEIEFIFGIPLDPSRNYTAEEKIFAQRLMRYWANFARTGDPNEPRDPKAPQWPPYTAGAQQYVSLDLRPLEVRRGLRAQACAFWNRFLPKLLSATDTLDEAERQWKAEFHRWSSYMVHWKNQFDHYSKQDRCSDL
Method: The enzymatic activity was assessed via a modified colorimetric Ellman′s method. First, 50 µL of Tris-HCl buffer (pH 8), 25µL of a buffer solution of the sample (50 µg/mL), and 25 µL of an acetylcholinesterase (AChE) enzyme solution containing 2.8 U/mL were mixed. A reaction was then initiated via the addition of 125 µL of 3 mM […]. After incubation for 15 min at 25 °C, 25 µL of a solution of iodide acetylthiocholine15 mM was added to a 96-well microplate. […] Inhibition (%) was calculated in the following way: Inhibition (%) = [(A control − A sample)/A control] × 100, where (A sample) is the absorbance of the molecule containing the reaction and (A control) is the absorbance of the reaction control. Tests were carried out in triplicate.

IGROV-1 cells = experiment: Cytotoxic activity, MTT assay, IGROV-1; details: for IC50: Homo sapiens, IGROV-1, read-out: IC50 IGROV-1; for Cytotoxic activity against IGROV-1 (in words): at 100 µM
Method: The cancer cell lines used in this study were HCT116 (colorectal carcinoma), IGROV1 (ovarian cancer), OVCAR3 (ovarian cancer), and MCF7 (mammary gland/breast cancer). […] Cell lines were maintained in culture and were incubated at 37 °C in an incubator with 5% CO2 in a humidified atmosphere. All tests were established at 80% of confluence, and viability was estimated with a trypan blue exclusion assay.
The cytotoxic activities of molecules against cancer cell lines were evaluated using an MTT assay. The MTT colorimetric assay was performed using 96-well plates. Cells were seeded in a 96-well plate, at a concentration of 10 × 10^3 cells/well for HCT116 and 12 × 10^3 cells/well for MCF7, IGROV1, and OVAR. Adherent cells were dispatched and incubated at 37 °C overnight in a 5% CO2-enriched atmosphere. Cells in the exponential growth phase were incubated at 37 °C for 72 h, with each tested sample at 50 µg/mL. After that, the medium was removed, and cells were treated with 50 µL of 3-(4,5-dimethylthazolk-2-yl)-2,5-diphenyl tetrazolium bromide (MTT) solution (3 mg/mL in PBS) at 37 °C for 20 to 40 min. To dissolve the […], we added 80 µL of 100% DMSO. Optical density was measured at 540 nm. All tests were established in triplicate. The anti-cancer effect of samples was estimated in terms of growth inhibition percentage.

15-lipoxygenase = target: T1, 15-lipoxygenase (Glycine max, UniProt P08170); experiment: Anti-inflammatory activity (anti 15-lipoxygenase); format: biochemical; details: at 100 µM
T1 sequence (P08170 1-839): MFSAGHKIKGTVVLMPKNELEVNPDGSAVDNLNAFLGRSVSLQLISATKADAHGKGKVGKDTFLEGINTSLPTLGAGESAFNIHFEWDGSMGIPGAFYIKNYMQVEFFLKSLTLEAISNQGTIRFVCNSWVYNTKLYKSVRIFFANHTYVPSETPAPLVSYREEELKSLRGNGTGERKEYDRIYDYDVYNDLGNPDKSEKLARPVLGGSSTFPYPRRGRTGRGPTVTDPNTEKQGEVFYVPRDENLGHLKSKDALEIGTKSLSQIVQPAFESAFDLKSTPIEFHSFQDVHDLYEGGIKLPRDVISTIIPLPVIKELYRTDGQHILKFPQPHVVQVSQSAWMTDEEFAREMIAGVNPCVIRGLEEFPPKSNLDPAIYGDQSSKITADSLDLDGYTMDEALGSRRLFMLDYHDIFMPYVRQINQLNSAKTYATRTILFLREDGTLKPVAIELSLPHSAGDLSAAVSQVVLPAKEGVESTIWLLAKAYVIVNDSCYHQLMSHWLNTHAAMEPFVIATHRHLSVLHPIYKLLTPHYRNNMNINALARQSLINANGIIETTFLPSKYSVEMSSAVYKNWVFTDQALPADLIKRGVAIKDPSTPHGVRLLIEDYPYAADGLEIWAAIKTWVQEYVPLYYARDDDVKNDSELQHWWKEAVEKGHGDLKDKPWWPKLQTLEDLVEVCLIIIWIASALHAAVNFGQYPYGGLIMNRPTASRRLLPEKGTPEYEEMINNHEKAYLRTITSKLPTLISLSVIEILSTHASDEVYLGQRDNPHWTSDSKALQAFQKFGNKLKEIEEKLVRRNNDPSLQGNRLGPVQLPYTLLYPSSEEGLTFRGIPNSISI

[5] = test system: porcine pancreas α-amylase; design: method as in doi:10.15436/2377-0619.15.042; details: at 1 mM, different protocols (chromogenic substrate p-nitrophenyl-α-D-maltopentaoside) ref 18; cited from earlier work
12-lipoxygenase = target: 12-lipoxygenase; design: method as in PMID 11447334; details: previous report ref 22; cited from earlier work
Aβ1-40-induced dementia = test system: Aβ1-40-induced dementia; design: method as in PMID 25274114; details: rats ref 20; cited from earlier work
xanthine oxidase (XOD) = xanthine oxidase (XOD) (Homo sapiens, UniProt P47989); format: biochemical; details: at 100 µM
Chain of xanthine oxidase (XOD) (P47989 whole entry, species assumed): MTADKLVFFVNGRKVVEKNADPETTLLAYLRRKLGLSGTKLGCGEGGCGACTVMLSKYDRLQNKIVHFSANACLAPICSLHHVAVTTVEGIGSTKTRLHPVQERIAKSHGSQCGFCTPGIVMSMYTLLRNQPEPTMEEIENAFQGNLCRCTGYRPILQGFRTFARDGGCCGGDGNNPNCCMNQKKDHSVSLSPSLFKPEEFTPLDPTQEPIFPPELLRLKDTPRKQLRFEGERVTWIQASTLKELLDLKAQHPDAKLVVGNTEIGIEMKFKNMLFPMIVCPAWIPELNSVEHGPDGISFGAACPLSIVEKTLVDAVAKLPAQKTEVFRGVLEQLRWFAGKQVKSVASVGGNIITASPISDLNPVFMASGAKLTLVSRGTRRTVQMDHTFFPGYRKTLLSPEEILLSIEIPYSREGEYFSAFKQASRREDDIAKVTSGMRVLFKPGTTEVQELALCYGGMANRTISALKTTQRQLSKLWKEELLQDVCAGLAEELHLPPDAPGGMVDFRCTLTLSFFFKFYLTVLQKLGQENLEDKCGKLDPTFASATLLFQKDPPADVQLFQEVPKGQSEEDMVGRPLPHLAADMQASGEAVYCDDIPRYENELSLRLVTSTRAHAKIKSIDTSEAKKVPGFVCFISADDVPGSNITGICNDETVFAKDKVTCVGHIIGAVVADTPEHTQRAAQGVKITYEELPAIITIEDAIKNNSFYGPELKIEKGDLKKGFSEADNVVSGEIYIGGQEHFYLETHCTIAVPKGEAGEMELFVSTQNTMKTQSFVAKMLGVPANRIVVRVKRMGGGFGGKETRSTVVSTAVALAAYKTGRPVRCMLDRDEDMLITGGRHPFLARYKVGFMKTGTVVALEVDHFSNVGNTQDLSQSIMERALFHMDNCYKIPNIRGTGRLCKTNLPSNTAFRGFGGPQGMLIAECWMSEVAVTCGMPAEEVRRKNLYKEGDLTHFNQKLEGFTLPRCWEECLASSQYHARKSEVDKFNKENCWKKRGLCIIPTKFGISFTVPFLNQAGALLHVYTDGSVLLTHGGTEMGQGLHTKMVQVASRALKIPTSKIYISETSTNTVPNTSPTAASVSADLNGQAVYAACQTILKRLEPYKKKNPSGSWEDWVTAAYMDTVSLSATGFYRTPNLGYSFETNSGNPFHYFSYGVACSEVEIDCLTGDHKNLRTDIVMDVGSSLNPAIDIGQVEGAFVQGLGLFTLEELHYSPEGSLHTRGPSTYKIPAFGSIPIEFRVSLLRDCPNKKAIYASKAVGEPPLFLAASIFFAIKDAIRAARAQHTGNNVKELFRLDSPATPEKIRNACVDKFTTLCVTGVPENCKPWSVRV

Row | SMILES | IC50 [1] [µM] | DPPH assay antioxidant activity ([2]; tested at 147.78 µM ref 17) [%] | ABTS assay antioxidant activity [3] [%] | IC50 [4] [µM] | IC50 (IGROV-1 cells) [µM] | Cytotoxic activity against IGROV-1 (in words) (IGROV-1 cells) | IC50 ([4]; read-out: Anti ACHE IC50) [µM] | Anti 15-Lipoxygenase % (15-lipoxygenase) | DPPH Assay % [1] | IC50 ([2]; previous study ref 16, read-out: DPPH assay IC50) [µM] | porcine pancreas α-amylase inhibition [5] | IC50 (12-lipoxygenase) [µM] | effect on Aβ1-40-induced dementia (Aβ1-40-induced dementia) | Anti XOD % (xanthine oxidase (XOD)) [%]
1 | COc1ccc(-c2oc3c(CC=C(C)C)c(O[C@@H]4O[C@H](CO)[C@@H](O)[C@H](O)[C@H]4O)cc(O)c3c(=O)c2O[C@@H]2O[C@@H](C)[C@H](O)[C@@H](O)[C@H]2O)cc1 [Molecule M2, Icariin] | > 100 | 3.8 ± 1.0 | 14.6 ± 0.1 | > 100 | > 100 | not active |  |  |  |  |  |  |  | 
2 | O=c1cc(-c2cccc(O)c2)oc2ccc3ccccc3c12 [Molecule M9, 3′-hydroxy-b-naphthoflavone] | > 100 |  |  |  | > 100 | not active | > 100 |  |  |  |  |  |  | 
3 | O=c1cc(-c2ccccc2)oc2cc(O)cc(O)c12 [Molecule M1, 5,7-dihydroxyflavone] | > 100 |  |  | > 100 |  | most active |  | ineffective | not active |  |  |  |  | 
4 | O=c1cc(-c2ccccc2)oc2cc(O)c(O)c(O)c12 [Molecule M7, 5,6,7-trihydroxyflavone] | 5.2 ± 0.2 |  |  | 10.2 ± 3 |  |  |  |  | 96.4 ± 0.1% | 21.2 | 13.2 ± 2.4% | 1 | perfected Aβ1-40-induced dementia in rats | 
5 | O=c1cc(-c2ccccc2)oc2cccc(O)c12 [Molecule M4, 5-hydroxyflavone] | > 100 |  |  | > 100 |  |  |  | ineffective |  |  | ineffective |  |  | 
6 | O=c1cc(-c2cc(O)cc(O)c2)oc2ccccc12 [Molecule M8, 3′,5′-dihydroxyflavone] | > 100 |  |  |  |  | most active | > 100 |  | 20.3 ± 4.1% |  |  |  |  | 75.3 ± 1.6
7 | O=c1cc(-c2ccccc2)oc2cc(O)ccc12 [Molecule M5, 7-hydroxyflavone] | > 100 |  |  | > 100 |  | most active |  | ineffective |  |  | 4.8 ± 3.6% |  |  | 
8 | O=c1cc(-c2cccc(O)c2)oc2cc(O)ccc12 [Molecule M13, 7,3′-dihydroxyflavone] | > 100 |  |  |  |  | most active | > 50 |  |  |  |  |  |  | 64.2 ± 1.2
9 | O=c1cc(-c2ccccc2)oc2ccc(O)cc12 [Molecule M3, 6-hydroxyflavone] | > 100 |  |  |  |  | most active | > 100 | ineffective |  |  | 4.5 ± 1.1% |  |  | 
10 | COc1cc(-c2cc(=O)c3ccc4c(O)cccc4c3o2)cc(OC)c1OC [Molecule M18, 7-hydroxy-3′,4′,5′-trimethoxy-α-naphthoflavone] | > 100 |  |  |  | > 100 | not active | > 100 |  | 40.8 ± 0.6% |  |  |  |  | 19.4 ± 1.0
